Assay results published in patent US20200278355A1, “CONJUGATED PROTEINS AND USES THEREOF” (THE SCRIPPS RESEARCH INSTITUTE, priority 2017, published 2020).

What was measured:
TXNDC12 = target: T1, TXNDC12 (Homo sapiens, UniProt O95881); assay: isoTOP-ABPP of compound-treated H460 cells: TXNDC12; format: cell-based; details: TXNDC12 C66; 40 μM
T1 construct: endogenous in cells; host or cells: H460
Procedure: (§1) For analysis of NR0B1 ligands or control compound reactivity, H460 cells or H460 cells expressing luciferase in a 10 cm plate were incubated with indicated compounds in serum/dye-free RPMI for 3 hours at 37° C. Cells were washed once ice-cold PBS and lysed in 1% Triton X-100 dissolved in PBS with protease inhibitors (Sigma) by sonication. Samples were clarified by centrifugation for 10 min at 16,000×g. Lysate was adjusted to 1.5 mg ml^−1 in 500 μL.
(§2) Samples were labeled for 1 h at ambient temperature with 100 μM iodoacetamide alkyne (1, IA-alkyne, 5 μL of 10 mM stock in DMSO). Samples were conjugated by copper-catalyzed azide-alkyne cycloaddition (CuAAC) to isotopically labeled, TEV-cleavable tags (TEV-tags). Heavy CuAAC reaction mixtures was added to the DMSO-treated or shGFP control samples and light CuAAC reaction mixture was added to compound-treated or shNRF2 samples. The CuAAC reaction mixture consisted of TEV tags (light or heavy, 10 μL of 5 mM stocks in DMSO, final concentration=100 μM), 1 mM tris(2-carboxyethyl)phosphine hydrochloride (TCEP; fresh 50× stock in water, final concentration=1 mM), ligand (17× stock in DMSO:t-butanol 1:4, final concentration=100 μM) and 1 mM CuSO4 (50× stock in water, final concentration=1 mM). The samples were allowed to react for 1 h at which point the samples were centrifuged (16,000×g, 5 min, 4° C.). […]

TXN = target: T2, TXN (Homo sapiens, UniProt P10599); assay: isoTOP-ABPP of compound-treated H460 cells: TXN; format: cell-based; details: TXN C35; 40 μM
T2 construct: H460 cells or H460 cells expressing luciferase in a 10 cm plate were incubated with indicated compounds; endogenous in cells; host or cells: H460
T2 sequence (P10599 whole entry): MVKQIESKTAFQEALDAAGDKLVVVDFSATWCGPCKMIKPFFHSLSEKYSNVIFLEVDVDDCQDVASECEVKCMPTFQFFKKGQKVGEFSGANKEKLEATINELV
Procedure: as §1, §2

T1 sequence (O95881 27-172): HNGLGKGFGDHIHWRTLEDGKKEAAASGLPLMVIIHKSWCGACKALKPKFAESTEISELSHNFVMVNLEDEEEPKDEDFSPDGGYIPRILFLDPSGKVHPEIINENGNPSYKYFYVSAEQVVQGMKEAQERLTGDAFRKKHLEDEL

O=C(c1ccc(N2CCOCC2)cc1)N1CCCC(N(Cc2ccccc2)C(=O)CCl)CC1 (centres unmarked) [BPK-29, N-benzyl-2-chloro-N-(1-(4-morpholinobenzoyl)azepan-4-yl)acetamide]
BPK-29-competed isoTOP-ABPP analysis (TXNDC12): Yes (Competed defined as showing R value ≥ 3.0 at 40 μM of test compound) | BPK-29-competed isoTOP-ABPP analysis (TXN): Yes (Competed defined as showing R value ≥ 3.0 at 40 μM of test compound)
